Data published in US20210145842A1, “NEW THERAPEUTIC USES” (NOVARTIS AG, priority 2018, published 2021).
Values joined by “and” are separate entries in the source; they are usually repeats but may differ in a detail not shown here. Equal entries are not always repeated. Where two headings read alike, the source gives them in different places.

Legend:
[1] = system: patients with metastatic NSCLC containing EGFR ex19del or L858R substitution mutations; conditions: EURTAC; erlotinib 150 mg once daily; cited from earlier work
patients [2] = conditions: pooled analysis; cited from earlier work
patients with NSCLC = conditions: in vivo; cited from earlier work
patients [3] = conditions: human, in vivo; cited from earlier work
[4] = system: patients with EGFR T790M-mutant NSCLC who were third-generation EGFR TKI naïve
Description: Patients were screened for eligibility across six subgroups according to EGFR mutation status and prior therapy, and treated with nazartinib 75-350 mg (capsule or tablet formulation) orally, once daily (QD), on a continuous 28-day dosing schedule. The primary objective of the Phase I part was to determine the maximum tolerated dose and/or recommended Phase II dose (RP2D).
This was a Phase I/II, multicenter, open-label study of nazartinib in patients with locally advanced/metastatic EGFR-mutant NSCLC.
Nazartinib was administered orally, once daily (QD), on a continuous, 28-day cycle dosing schedule. The starting dose for the Phase I part was 75 mg in capsule formulation. Nazartinib in tablet formulation was also introduced during Phase I. Patients were treated across the following QD dose groups: 75 mg, 100 mg, 150 mg, 200 mg, 225 mg, 300 mg, and 350 mg. Initial cohorts consisted of 1-6 patients.
Patients treated with capsule or with tablet at the same dose level were pooled together into a single treatment group for safety and efficacy analyses. The Full Analysis Set (FAS) consists of all patients who received ≥1 dose of the study drug. Efficacy analyses were performed on all patients in the FAS who had baseline and post-baseline tumor assessment data or who had discontinued prior to post-baseline tumor assessment, and excluded patients with tumors that were wild-type at EGFR T790 or who had received prior third-generation EGFR TKIs, unless otherwise noted.
Duration of response (DoR) and PFS were described using the Kaplan-Meier method.

[5] = Distribution of nazartinib to the brain in a preclinical model; assay type: in vivo
[6] = system: patients with advanced EGFR-mutant NSCLC harbouring activating EGFR L858R and/or ex19del mutations
[7] = system: EGFR mutant (L858R, ex19del and T790M) cancer models; conditions: cited from earlier work
[8] = system: patients with EGFR T790M+ NSCLC; conditions: cited from earlier work; for hazard ratio for PFS: 95% CI
[9] = system: patients with EGFR mutant NSCLC; conditions: cited from earlier work
[10] = Brain metastases absent at baseline, 14 evaluable patients, preliminary data
[11] = Brain metastases present at baseline, 10 evaluable patients, preliminary data

Compound: C#Cc1cccc(Nc2ncnc3cc(OCCOC)c(OCCOC)cc23)c1 [erlotinib]
- median PFS as assessed by the investigator [1]: 9.7 months
- ILD occurrence (patients [2]): 1.1%
- PFS obtained following treatment (patients with NSCLC): 9.7 months

Compound: COc1cc2ncnc(Nc3ccc(F)c(Cl)c3)c2cc1OCCCN1CCOCC1 [gefitinib]
- patients who stopped therapy due to an adverse drug reaction (patients [3]): Approximately 3%
- patients with a severe adverse drug reaction (grade 3 or 4) (patients [3]): Approximately 8%
- PFS obtained following treatment (patients with NSCLC): 9.5 months

Compound: Cc1cc(C(=O)Nc2nc3cccc(Cl)c3n2[C@@H]2CCCCN(C(=O)/C=C/CN(C)C)C2)ccn1 [nazartinib, (R,E)-N-(7-chloro-1-(1-(4-(dimethylamino)but-2-enoyl)azepan-3-yl)-1H-benzo [d]imidazol-2-yl)-2-methylisonicotinamide]
- Among patients who progressed: Both A and B (A: progression in brain, B: outside of brain, at first PD) ([4]; 75 mg QD, N = 12): 1 patients
- Among patients who progressed: Only A, not B (A: progression in brain, B: outside of brain, at first PD) ([4]; 75 mg QD, N = 12): 1 patients
- Among patients with baseline brain metastasis who progressed: Both A and B (A: progression in brain, B: outside of brain, at first PD) ([4]; 100 mg QD, N = 34): 2 patients
- Among patients with baseline brain metastasis who progressed: Only A, not B (A: progression in brain, B: outside of brain, at first PD) ([4]; 100 mg QD, N = 34): 1 patients
- Best response of brain non-target lesions: Absent/normalized ([4]; 100 mg QD, N = 34): 1 patients
- ORR ([4]; 150 mg QD dose level): 46%
- Best response of brain non-target lesions: Absent/normalized ([4]; 150 mg QD, N = 68): 3 patients
- Among patients who progressed: Only A, not B (A: progression in brain, B: outside of brain, at first PD) ([4]; 200 mg QD, N = 8): 1 patients
- Among patients who progressed: Only B, not A (A: progression in brain, B: outside of brain, at first PD) ([4]; 200 mg QD, N = 8): 6 patients
- HBV reactivation leading to hepatic failure and death ([4]; 225 mg QD): one
- Among patients who progressed: Only B, not A (A: progression in brain, B: outside of brain, at first PD) ([4]; 225 mg QD, N = 24): 16 patients
- Among patients with baseline brain metastasis who progressed: Only A, not B (A: progression in brain, B: outside of brain, at first PD) ([4]; 225 mg QD, N = 24): 1 patients
- Among patients with baseline brain metastasis who progressed: Only B, not A (A: progression in brain, B: outside of brain, at first PD) ([4]; 225 mg QD, N = 24): 6 patients
- Best response of brain non-target lesions: Absent/normalized ([4]; 225 mg QD, N = 24): 3 patients
- best overall response rate across doses ([4]; 162 evaluable patients with EGFR T790M-positive tumors naïve to third-generation EGFR TKIs, 95% CI: 43-59): 51%
- Among patients with baseline brain metastasis who progressed: Only A, not B (A: progression in brain, B: outside of brain, at first PD) ([4]; All patients, N = 162): five
- Best response of brain non-target lesions: Absent/normalized ([4]; All patients, N = 162): 16% and 14%
- median duration of response ([4]; across doses, EGFR T790M-positive, third-generation EGFR TKI naïve): 11.0 months
- median progression-free survival (PFS) ([4]; across doses, 95% CI: 7.3-11.1): 9.1 months
- most common adverse events ([4]; human, in vivo): rash, diarrhea, and pruritus
- overall disease control rate (DCR) ([4]; patients with EGFR T790M-positive tumors naïve to third-generation EGFR TKIs): 89% and 87%
- brain metastases at first post-baseline evaluation (single case) ([4]; person, EGFR ex19del/T790M NSCLC, numerous small brain metastases at baseline): no longer radiologically detectable
- duration of overall partial response (single case) ([4]; person, EGFR ex19del/T790M NSCLC, numerous small brain metastases at baseline, no prior local therapy to the brain): 11.1 months
- distribution to the brain [5]: minimal
- 6-month duration of response rate (DoR) ([6]; 150 mg once daily): 91%
- 6-month overall survival rate ([6]; 150 mg once daily): 95%
- 6-month progression-free survival rate ([6]; 150 mg once daily): 83%
- disease control rate ([6]; 150 mg once daily): 93%
- patients who achieved complete response ([6]; 150 mg once daily, 45 patients): One
- ORR per RECIST v1.1 by BICR ([6]; 150 mg once daily, 45 patients, 95% CI 49%-78%): 64%
- patients who demonstrated a response ([6]; 150 mg once daily, of 45 patients): Twenty-nine
- Best overall response per BIRC: Progressive disease (PD) [6, 10]: 0 patients
- Disease control rate (CR + PR + SD + NCRNPD) per BIRC [6, 10]: 14 patients
- Overall response rate per BIRC [6, 10]: 11 patients
- Best overall response per BIRC: Complete response (CR) [6, 11]: 0 patients
- Best overall response per BIRC: Non-CR/non-PD (NCRNPD) [6, 11]: 0 patients
- Disease control rate (CR + PR + SD + NCRNPD) per BIRC [6, 11]: 9 patients
- Overall response rate per BIRC [6, 11]: 5 patients
- patients who developed a new brain metastasis on study ([6]; of the 27 patients without baseline brain metastasis): One
- responses ongoing at data cutoff ([6]; of the 29 responding patients, cutoff 22 Mar. 2018): 27 patients
- brain post-baseline scan versus baseline by BIRC (single case) ([6]; person, Cycle 5 Day 1 (study day 113), no prior treatment for brain metastases): complete normalization of brain lesion
- anti-tumor efficacy ([7]; several xenograft models): Dose-dependent anti-tumor efficacy
- tolerability, body weight ([7]; xenograft models, efficacious doses): well tolerated with no body weight loss

Compound: C=CC(=O)Nc1cc(Nc2nccc(-c3cn(C)c4ccccc34)n2)c(OC)cc1N(C)CCN(C)C [osimertinib]
- median duration of response ([8]; AURA3): 9.7 month
- median PFS ([8]; osimertinib arm of AURA3): 10.1 months
- hazard ratio for PFS ([8]; overall population, 0.23-0.41): 0.30
- hazard ratio for PFS ([8]; patients with CNS metastases, 0.21-0.49): 0.32
- investigator reported median progression-free survival ([9]; FLAURA first-line): 18.9 months
- median duration of response ([9]; FLAURA first-line): 17.2 months
- objective response rate (ORR) ([9]; FLAURA first-line): 80%
- adverse event: diarrhea ([9]; any cause): 58%
- adverse event: dry skin ([9]; any cause): 36%
- adverse event: rash or acne ([9]; any cause): 58%
- AEs of grade 3 or higher ([9]; in vivo): 34%
- survival rate at 18 months ([9]; interim analysis): 83%
- HR for disease progression or death ([9]; osimertinib vs standard EGFR-TKIs, 95% CI 0.37 to 0.57, P<0.001): 0.46
- hazard ratio for death ([9]; osimertinib vs standard EGFR-TKIs, 95% CI, 0.45 to 0.88, P=0.007): 0.63
- odds ratio for ORR ([9]; osimertinib vs standard EGFR-TKIs, 95% CI, 0.85 to 1.90, P=0.24): 1.27
- PFS obtained following treatment (patients with NSCLC): 10.2 months
